Assay results taken from US20260022143A1, “Cyclic Peptide Inhibitors of IL-23” (JANSSEN PHARMACEUTICA NV, priority 2022, published 2026).
Structures can show the parent of a compound that is named as a salt. Starred links: 1 amine or outer side, 2 acyl side, 3 side chain; linkers in the order of their positions; H or OH if unused. Positions of bridges follow the written chain, without caps; N, C: chain ends. Non-standard residues stand in square brackets, D forms with d. Residues, ends and D or L forms follow the SMILES beside them. Groups on a side chain read outwards from the residue. *: point of attachment. X21 = O=C([C@H](Cc1cncc(C(F)(F)F)c1)N[*:1])[*:2]; Trp(7-Me) = Cc1cccc2c(C[C@H](N)C(=O)O)c[nH]c12; 2Nal = N[C@@H](Cc1ccc2ccccc2c1)C(=O)O; AEF = NCCOc1ccc(C[C@H](N)C(=O)O)cc1; dNMeY = CN[C@H](Cc1ccc(O)cc1)C(=O)O; PEG6 = NCCOCCOCCOCCOCCOCCOCCC(=O)O; 3Pal = N[C@@H](Cc1cccnc1)C(=O)O; Cit = NC(=O)NCCC[C@H](N)C(=O)O; Lys(Me) = CNCCCC[C@H](N)C(=O)O; X7 = COCCOCCOCCOCCOCCOCCC(=O)*; αMeL = CC(C)C[C@](C)(N)C(=O)O; Pen = CC(C)(S)[C@H](N)C(=O)O; Thp = NC1(C(=O)O)CCOCC1; Tfa = O=C(C(F)(F)F)*; NHtBu = CC(C)(C)N*; Sar = CNCC(=O)O

Assays:
IL-23R = target: T1, IL-23R (Homo sapiens, UniProt Q5VWK5); assay: IL23R Reporter Assay; assay type: cell-based; conditions: HEK293 cells containing IL-23R, IL-12RP1 and STAT-inducible firefly luciferase reporter; 10 ng/mL IL-23 (EC90); 5 h at 37° C.; read-out: IL23R Reporter Assay
T1 construct: host or cells: HEK293
T1 sequence (Q5VWK5 24-629): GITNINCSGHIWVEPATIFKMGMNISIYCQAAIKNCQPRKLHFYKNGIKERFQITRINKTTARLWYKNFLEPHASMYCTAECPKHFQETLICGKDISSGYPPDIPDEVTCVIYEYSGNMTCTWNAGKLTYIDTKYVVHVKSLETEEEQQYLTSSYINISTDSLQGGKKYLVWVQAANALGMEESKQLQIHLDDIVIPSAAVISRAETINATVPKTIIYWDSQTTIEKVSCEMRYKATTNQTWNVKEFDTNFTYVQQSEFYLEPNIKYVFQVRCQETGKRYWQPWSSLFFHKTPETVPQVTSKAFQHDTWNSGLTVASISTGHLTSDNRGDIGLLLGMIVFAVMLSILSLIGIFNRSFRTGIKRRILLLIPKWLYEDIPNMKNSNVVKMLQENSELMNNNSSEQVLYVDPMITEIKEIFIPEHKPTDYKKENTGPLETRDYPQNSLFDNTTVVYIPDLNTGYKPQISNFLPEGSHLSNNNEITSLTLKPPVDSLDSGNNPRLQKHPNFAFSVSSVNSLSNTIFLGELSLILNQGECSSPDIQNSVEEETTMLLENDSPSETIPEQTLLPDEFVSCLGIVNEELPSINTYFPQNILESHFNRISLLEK

[1] = Exposed Polar Surface Area (EPSA); assay type: physicochemical; conditions: SFC on Chirex 3014 column; sample 1 mM DMSO stock; read-out: EPSA
Method in brief: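 Polarity descriptor in Å² derived from retention time using 8 calibration standards re-run every 20 compounds. Duplicate injections of 1 mM DMSO stock; linear 5–60% modifier gradient (20 mM ammonium formate in MeOH) with CO2 at 4 mL/min, 35 °C, on a Chirex 3014 column.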

| SMILES | IC50 (IL-23R) [nM] | EPSA [1] [A^2] |
| --- | --- | --- |
| CC(=O)N[C@H](CCCNC(=N)N)C(=O)N[C@@H]1C(=O)N[C@@H](CC(N)=O)C(=O)N[C@@H]([C@@H](C)O)C(=O)N[C@@H](Cc2c[nH]c3c(C)cccc23)C(=O)N[C@@H](CCCNC(N)=O)C(=O)N[C@H](C(=O)N[C@@H](Cc2ccc(OCCN)cc2)C(=O)N[C@@H](Cc2ccc3ccccc3c2)C(=O)N[C@@](C)(CC(C)C)C(=O)N[C@@H](CCC(=O)O)C(=O)N[C@@H](CC(N)=O)C(=O)N[C@H](CCCCN)C(=O)N(C)[C@H](Cc2ccc(O)cc2)C(N)=O)C(C)(C)SSC1(C)C [compound 16, MeCO-r-Pen(3)-N-T-7MeW-Cit-Pen(3)-AEF-2Nal-aMeL-E-N-k-NMeDTyr-CONH2] (Ac-[dR][Pen]NT[Trp(7-Me)][Cit][Pen][AEF][2Nal][αMeL]EN[dK][dNMeY]-NH2; disulfide 2-7) | 24 | 180 |
| CC(=O)N[C@H](CCCNC(=N)N)C(=O)N[C@@H]1C(=O)N[C@@H](CC(N)=O)C(=O)N[C@@H]([C@@H](C)O)C(=O)N[C@@H](Cc2c[nH]c3c(C)cccc23)C(=O)N[C@@H](CCCNC(N)=O)C(=O)N[C@H](C(=O)N[C@@H](Cc2ccc(OCCN)cc2)C(=O)N[C@@H](Cc2ccc3ccccc3c2)C(=O)N[C@@](C)(CC(C)C)C(=O)N[C@@H](CCC(=O)O)C(=O)N[C@@H](CC(N)=O)C(=O)N[C@H](Cc2c[nH]cn2)C(=O)N(C)[C@H](Cc2ccc(O)cc2)C(N)=O)C(C)(C)SSC1(C)C [compound 17, MeCO-r-Pen(3)-N-T-7MeW-Cit-Pen(3)-AEF-2Nal-aMeL-E-N-h-NMeDTyr-CONH2] (Ac-[dR][Pen]NT[Trp(7-Me)][Cit][Pen][AEF][2Nal][αMeL]EN[dH][dNMeY]-NH2; disulfide 2-7) | 38 | 186 |
| CC(=O)NCCCC[C@@H]1NC(=O)[C@H](Cc2c[nH]c3c(C)cccc23)NC(=O)[C@H]([C@@H](C)O)NC(=O)[C@H](CC(N)=O)NC(=O)[C@@H](NC(=O)[C@@H](CCCNC(=N)N)NC(C)=O)C(C)(C)SSC(C)(C)[C@@H](C(=O)N[C@@H](Cc2ccc(OCCN)cc2)C(=O)N[C@@H](Cc2ccc3ccccc3c2)C(=O)NC2(C(=O)N[C@@H](CCC(=O)O)C(=O)N[C@@H](CC(N)=O)C(=O)N[C@@H](Cc3cccnc3)C(=O)N(C)[C@H](Cc3ccc(O)cc3)C(N)=O)CCOCC2)NC1=O [compound 35, MeCO-r-Pen(3)-N-T-7MeW-K(Ac)-Pen(3)-AEF-2Nal-THp-E-N-3Pya-NMeDTyr-CONH2] (Ac-[dR][Pen]NT[Trp(7-Me)]K(Ac)[Pen][AEF][2Nal][Thp]EN[3Pal][dNMeY]-NH2; disulfide 2-7) | 3.4 | 184 |
| CC(=O)NCCCC[C@@H]1NC(=O)[C@H](Cc2c[nH]c3c(C)cccc23)NC(=O)[C@H]([C@@H](C)O)NC(=O)[C@H](CC(N)=O)NC(=O)[C@@H](NC(=O)[C@@H](CCCCNC(=O)CCOCCOCCOCCOCCOCCOCCNC(C)=O)NC(C)=O)C(C)(C)SSC(C)(C)[C@@H](C(=O)N[C@@H](Cc2ccc(OCCN)cc2)C(=O)N[C@@H](Cc2ccc3ccccc3c2)C(=O)NC2(C(=O)N[C@@H](CCCCNC(C)=O)C(=O)N[C@@H](CC(N)=O)C(=O)N[C@@H](Cc3cccnc3)C(=O)N(C)CC(N)=O)CCOCC2)NC1=O [compound 39] (Ac-[dK]([PEG6-Ac])[Pen]NT[Trp(7-Me)]K(Ac)[Pen][AEF][2Nal][Thp]K(Ac)N[3Pal][Sar]-NH2; disulfide 2-7 (inferred)) | 5.5 | 158 |
| CNC(=O)C[C@@H]1NC(=O)[C@@H](NC(C)=O)C(C)(C)SSC(C)(C)[C@@H](C(=O)N[C@@H](Cc2ccc(OCCN)cc2)C(=O)N[C@@H](Cc2ccc3ccccc3c2)C(=O)NC2(C(=O)N[C@@H](CCCCNC(C)=O)C(=O)N[C@@H](CC(N)=O)C(=O)N[C@@H](Cc3cccnc3)C(=O)N(C)CC(N)=O)CCOCC2)NC(=O)[C@H](CCCCNC(C)=O)NC(=O)[C@H](Cc2c[nH]c3c(C)cccc23)NC(=O)[C@H]([C@@H](C)O)NC1=O [compound 46] (Ac-[Pen]D(NHMe)T[Trp(7-Me)]K(Ac)[Pen][AEF][2Nal][Thp]K(Ac)N[3Pal][Sar]-NH2; disulfide 1-6 (inferred)) | 3.2 | 162 |
| CC(=O)NCCCC[C@@H]1NC(=O)[C@H](Cc2c[nH]c3c(C)cccc23)NC(=O)[C@H]([C@@H](C)O)NC(=O)[C@H](CC(=O)N(C)C)NC(=O)[C@@H](NC(=O)C(F)(F)F)C(C)(C)SSC(C)(C)[C@@H](C(=O)N[C@@H](Cc2ccc(OCCN)cc2)C(=O)N[C@@H](Cc2ccc3ccccc3c2)C(=O)NC2(C(=O)N[C@@H](CCCCNC(C)=O)C(=O)N[C@@H](CC(N)=O)C(=O)N[C@@H](Cc3cccnc3)C(=O)N(C)CC(N)=O)CCOCC2)NC1=O [compound 52, CF3CO-Pen(3)-N(N(Me)2)-T-7MeW-K(Ac)-Pen(3)-AEF-2Nal-THP-K(Ac)-N-3Pya-Sar-CONH2] (Tfa-[Pen]D(NMe2)T[Trp(7-Me)]K(Ac)[Pen][AEF][2Nal][Thp]K(Ac)N[3Pal][Sar]-NH2; disulfide 1-6 (inferred)) | 4.6 | 158 |

The next lines start with the values.

| IC50 (IL-23R) [nM] | EPSA [1] [A^2] | SMILES |
| --- | --- | --- |
| 5.7 | 158 | CC(=O)NCCCC[C@@H]1NC(=O)[C@H](Cc2c[nH]c3c(C)cccc23)NC(=O)[C@H]([C@@H](C)O)NC(=O)[C@H](CC(N)=O)NC(=O)[C@@H](NC(=O)C(F)(F)F)C(C)(C)SSC(C)(C)[C@@H](C(=O)N[C@@H](Cc2ccc(OCCN)cc2)C(=O)N[C@@H](Cc2ccc3ccccc3c2)C(=O)NC2(C(=O)N[C@@H](CCCCNC(C)=O)C(=O)N[C@@H](CC(N)=O)C(=O)N[C@@H](Cc3cncc(C(F)(F)F)c3)C(=O)N(C)CC(N)=O)CCOCC2)NC1=O [compound 56] (Tfa-[Pen]NT[Trp(7-Me)]K(Ac)[Pen][AEF][2Nal][Thp]K(Ac)N[X21][Sar]-NH2; disulfide 1-6 (inferred)) |
| 4.3 | 154 | CNC(=O)C[C@@H]1NC(=O)[C@@H](NC(C)=O)C(C)(C)SSC(C)(C)[C@@H](C(=O)N[C@@H](Cc2ccc(OCCNC(C)=O)cc2)C(=O)N[C@@H](Cc2ccc3ccccc3c2)C(=O)NC2(C(=O)N[C@@H](CCCCN(C)C(C)=O)C(=O)N[C@@H](CC(N)=O)C(=O)N[C@@H](Cc3cccnc3)C(=O)N(C)CC(N)=O)CCOCC2)NC(=O)[C@H](CCCCN(C)C(C)=O)NC(=O)[C@H](Cc2c[nH]c3c(C)cccc23)NC(=O)[C@H]([C@@H](C)O)NC1=O [compound 58] (Ac-[Pen]D(NHMe)T[Trp(7-Me)][Lys(Me)](Ac)[Pen][AEF](Ac)[2Nal][Thp][Lys(Me)](Ac)N[3Pal][Sar]-NH2; disulfide 1-6) |
| 3.5 | 157 | CC(=O)NCCCC[C@H](NC(=O)C1(NC(=O)[C@H](Cc2ccc3ccccc3c2)NC(=O)[C@H](Cc2ccc(OCCN)cc2)NC(=O)[C@H]2NC(=O)[C@H](CCC(=O)NC(C)(C)C)NC(=O)[C@H](Cc3c[nH]c4c(C)cccc34)NC(=O)[C@H]([C@@H](C)O)NC(=O)[C@H](CC(N)=O)NC(=O)[C@@H](NC(=O)C(F)(F)F)C(C)(C)SSC2(C)C)CCOCC1)C(=O)N[C@@H](CC(N)=O)C(=O)N[C@@H](Cc1cccnc1)C(=O)N(C)CC(N)=O [compound 60] (Tfa-[Pen]NT[Trp(7-Me)]E(NHtBu)[Pen][AEF][2Nal][Thp]K(Ac)N[3Pal][Sar]-NH2; disulfide 1-6 (inferred)) |
| 25 | 157 | CC(=O)NCCCC[C@@H]1NC(=O)[C@H](Cc2c[nH]c3c(C)cccc23)NC(=O)[C@H]([C@@H](C)O)NC(=O)[C@H](CC(N)=O)NC(=O)[C@@H](NC(=O)C(F)(F)F)C(C)(C)SSC(C)(C)[C@@H](C(=O)N[C@@H](Cc2ccc(OCCN)cc2)C(=O)N[C@@H](Cc2ccc3ccccc3c2)C(=O)NC2(C(=O)N[C@@H](CCCCNC(C)=O)C(=O)N[C@@H](CC(N)=O)C(=O)N[C@@H](Cc3cccnc3)C(=O)N(C)C)CCOCC2)NC1=O [compound 63] (Tfa-[Pen]NT[Trp(7-Me)]K(Ac)[Pen][AEF][2Nal][Thp]K(Ac)N[3Pal]-NMe2; disulfide 1-6 (inferred)) |
| 4.9 | 160 | COCCOCCOCCOCCOCCOCCC(=O)N[C@@H]1C(=O)N[C@@H](CC(N)=O)C(=O)N[C@@H]([C@@H](C)O)C(=O)N[C@@H](Cc2c[nH]c3c(C)cccc23)C(=O)N[C@@H](CCCCNC(C)=O)C(=O)N[C@H](C(=O)N[C@@H](Cc2ccc(OCCN)cc2)C(=O)N[C@@H](Cc2ccc3ccccc3c2)C(=O)NC2(C(=O)N[C@@H](CCCCNC(C)=O)C(=O)N[C@@H](CC(N)=O)C(=O)N[C@@H](Cc3cccnc3)C(=O)N(C)CC(N)=O)CCOCC2)C(C)(C)SSC1(C)C [compound 64] (X7-[Pen]NT[Trp(7-Me)]K(Ac)[Pen][AEF][2Nal][Thp]K(Ac)N[3Pal][Sar]-NH2; disulfide 1-6 (inferred)) |
